Measured values reported in patent publication US20240368406A1, “STABLE LIQUID PHANTOM FOR NEAR-INFRARED FLUORESCENCE VERIFICATION” (SURGVISION GMBH, priority 2021, published 2024).

Key:
Format in all cases: physicochemical
[1] = Stability of the phantom solutions at +2-8° C. (residual absorbance, UV/VIS)
Description: Several stability studies were performed to evaluate the effect of different buffers, additives such as excipients or preservatives, and storage conditions on the dye formulation. In particular the stability of the formulations after storage at +2-8° C. in a refrigerator was firstly investigated.
(§1) Stability was measured as reduction in the absorbance at the maximum wavelength of the dye acquired using a UV/VIS spectrophotometer, denoting reduction of the dye monomer content in solution. All the results were then reported as residual percentage vs the baseline (T=0), wherein at time=0 the percentage is 100%. A decrease in absorbance is associated with the reduction of the concentration of the dye in the formulation buffer, indicating low stability and degradation of the main chromophore species.
In the Tables below the residual absorbance of different dyes, i.e. […] and S0456, in some representative organic buffering solutions is reported after storage of the formulations at +2-8° C.

[2] = Stability of the phantom solutions at +2-8° C. in the presence of additives (residual absorbance); details: +2-8° C.
Description: as §1
The effect of the presence of an additive on the stability of the formulations of the invention has been also investigated.
The preparation of the above buffers is described below:
50 mM HEPES (pH 7.4)+0.04% Tween 20: to prepare 100 mL of buffering solution, 1.19 g of HEPES were dissolved in 80 mL of water; 40 μL of Tween 20 were added and the pH was adjusted to 7.4 with 0.1 M HCl. The buffering solution was then brought to 100 mL volume with water and filtered on 0.22 μm membrane in sterile conditions.
50 mM HEPES (PH 7.4)+0.02% Sodium Azide: to prepare 100 mL of buffering solution, 1.19 g of HEPES and 20 mg of Sodium Azide were dissolved in 80 mL of water and the pH was adjusted to 7.4 with 0.1 M HCl. The buffering solution was then brought to 100 mL volume with water and filtered on 0.22 μm membrane in sterile conditions.
10 mM HEPES (PH 7.0)+10% EtOH: to prepare 100 mL of buffering solution, 0.24 g of HEPES were dissolved in 80 mL of water and the pH was adjusted to 7.0 with 0.1 M HCl.
Then, 10 mL of 100% Ethanol were added. The buffering solution was then brought to 100 mL volume with water and filtered on 0.22 μm membrane in sterile conditions.
Analogous solutions were prepared with the same procedure for MOPS, BES and TRICINE buffers.

[3] = Stability of the phantom solutions at +2-8° C. during long-term storage (residual absorbance); details: 3 μM dye in HEPES 10 mM, pH 7.0, +2-8° C. protected from light
Description: Stability was measured as reduction in the absorbance at the maximum wavelength of the dye acquired using a UV/VIS spectrophotometer, denoting reduction of the dye monomer content in solution. […] A decrease in absorbance is associated with the reduction of the concentration of the dye in the formulation buffer, indicating low stability and degradation of the main chromophore species. The stability of the formulations under long-term storage conditions was also investigated. In particular, samples of 3 μM IRDye […] and 3 μM IRDye 800BK dissolved in HEPES buffer were stored refrigerated at +2-8° C. protected from light exposure for at least 6 months. For the long-term stability study at 2-8° C., samples of.

CC1(C)C(/C=C/C2=C(Oc3ccc(S(=O)(=O)O)cc3)C(=C/C=C3\N(CCCCS(=O)(=O)[O-])c4ccc(S(=O)(=O)O)cc4C3(C)C)/CCC2)=[N+](CCCCS(=O)(=O)O)c2ccc(S(=O)(=O)O)cc21 [IRDye 800BK]
Residual absorbance percentage ([1]; 3 μM dye in BES buffer 10 mM, pH 7.0, +2-8° C., 1 week): 97.6% | Residual absorbance percentage ([1]; 3 μM dye in BES buffer 10 mM, pH 7.0, +2-8° C., 2 weeks): 94.8% | Residual absorbance percentage ([1]; 3 μM dye in BES buffer 10 mM, pH 7.0, +2-8° C., 4 weeks): 92.0% | Residual absorbance percentage ([1]; 3 μM dye in BES buffer 10 mM, pH 7.4, +2-8° C., 1 week): 97.6% | Residual absorbance percentage ([1]; 3 μM dye in BES buffer 10 mM, pH 7.4, +2-8° C., 2 weeks): 94.4% | Residual absorbance percentage ([1]; 3 μM dye in BES buffer 10 mM, pH 7.4, +2-8° C., 4 weeks): 91.5% | Residual absorbance percentage ([1]; 3 μM dye in BES buffer 10 mM, pH 7.8, +2-8° C., 1 week): 96.4% | Residual absorbance percentage ([1]; 3 μM dye in BES buffer 10 mM, pH 7.8, +2-8° C., 2 weeks): 92.4% | Residual absorbance percentage ([1]; 3 μM dye in BES buffer 10 mM, pH 7.8, +2-8° C., 4 weeks): 88.1% | Residual absorbance percentage ([1]; 3 μM dye in BES buffer 50 mM, pH 7.0, +2-8° C., 1 week): 96.8% | Residual absorbance percentage ([1]; 3 μM dye in BES buffer 50 mM, pH 7.0, +2-8° C., 2 weeks): 93.5% | Residual absorbance percentage ([1]; 3 μM dye in BES buffer 50 mM, pH 7.0, +2-8° C., 4 weeks): 90.0% | Residual absorbance percentage ([1]; 3 μM dye in BES buffer 50 mM, pH 7.4, +2-8° C., 1 week): 97.2% | Residual absorbance percentage ([1]; 3 μM dye in BES buffer 50 mM, pH 7.4, +2-8° C., 2 weeks): 94.0% | Residual absorbance percentage ([1]; 3 μM dye in BES buffer 50 mM, pH 7.4, +2-8° C., 4 weeks): 90.5% | Residual absorbance percentage ([1]; 3 μM dye in BES buffer 50 mM, pH 7.8, +2-8° C., 1 week): 95.9% | Residual absorbance percentage ([1]; 3 μM dye in BES buffer 50 mM, pH 7.8, +2-8° C., 2 weeks): 91.7% | Residual absorbance percentage ([1]; 3 μM dye in BES buffer 50 mM, pH 7.8, +2-8° C., 4 weeks): 89.6% | Residual absorbance percentage ([1]; 3 μM dye in MOPS buffer 10 mM, pH 7.0, +2-8° C., 1 week): 97.9% | Residual absorbance percentage ([1]; 3 μM dye in MOPS buffer 10 mM, pH 7.0, +2-8° C., 2 weeks): 95.7% | Residual absorbance percentage ([1]; 3 μM dye in MOPS buffer 10 mM, pH 7.0, +2-8° C., 4 weeks): 93.7% | Residual absorbance percentage ([1]; 3 μM dye in MOPS buffer 10 mM, pH 7.4, +2-8° C., 1 week): 97.9% | Residual absorbance percentage ([1]; 3 μM dye in MOPS buffer 10 mM, pH 7.4, +2-8° C., 2 weeks): 95.3% | Residual absorbance percentage ([1]; 3 μM dye in MOPS buffer 10 mM, pH 7.4, +2-8° C., 4 weeks): 93.6% | Residual absorbance percentage ([1]; 3 μM dye in MOPS buffer 10 mM, pH 7.8, +2-8° C., 1 week): 96.9% | Residual absorbance percentage ([1]; 3 μM dye in MOPS buffer 10 mM, pH 7.8, +2-8° C., 2 weeks): 94.1% | Residual absorbance percentage ([1]; 3 μM dye in MOPS buffer 10 mM, pH 7.8, +2-8° C., 4 weeks): 91.1% | Residual absorbance percentage ([1]; 3 μM dye in MOPS buffer 50 mM, pH 7.0, +2-8° C., 1 week): 97.4% | Residual absorbance percentage ([1]; 3 μM dye in MOPS buffer 50 mM, pH 7.0, +2-8° C., 2 weeks): 94.6% | Residual absorbance percentage ([1]; 3 μM dye in MOPS buffer 50 mM, pH 7.0, +2-8° C., 4 weeks): 92.0% | Residual absorbance percentage ([1]; 3 μM dye in MOPS buffer 50 mM, pH 7.4, +2-8° C., 1 week): 97.5% | Residual absorbance percentage ([1]; 3 μM dye in MOPS buffer 50 mM, pH 7.4, +2-8° C., 2 weeks): 94.9% | Residual absorbance percentage ([1]; 3 μM dye in MOPS buffer 50 mM, pH 7.4, +2-8° C., 4 weeks): 92.6% | Residual absorbance percentage ([1]; 3 μM dye in MOPS buffer 50 mM, pH 7.8, +2-8° C., 1 week): 97.0% | Residual absorbance percentage ([1]; 3 μM dye in MOPS buffer 50 mM, pH 7.8, +2-8° C., 2 weeks): 94.0% | Residual absorbance percentage ([1]; 3 μM dye in MOPS buffer 50 mM, pH 7.8, +2-8° C., 4 weeks): 91.3% | Residual absorbance percentage ([2]; 3 μM dye in BES (10 mM, pH 7.0) +10% EtOH, 1 week): 99.2% | Residual absorbance percentage ([2]; 3 μM dye in BES (10 mM, pH 7.0) +10% EtOH, 2 weeks): 98.2% | Residual absorbance percentage ([2]; 3 μM dye in BES (10 mM, pH 7.0) +10% EtOH, 4 weeks): 97.2% | Residual absorbance percentage ([2]; 3 μM dye in HEPES (10 mM, pH 7.0) +10% EtOH, 1 week): 97.8% | Residual absorbance percentage ([2]; 3 μM dye in HEPES (10 mM, pH 7.0) +10% EtOH, 2 weeks): 97.2% | Residual absorbance percentage ([2]; 3 μM dye in HEPES (10 mM, pH 7.0) +10% EtOH, 4 weeks): 95.1% | Residual absorbance percentage ([2]; 3 μM dye in MOPS (10 mM, pH 7.0) +10% EtOH, 1 week): 97.6% | Residual absorbance percentage ([2]; 3 μM dye in MOPS (10 mM, pH 7.0) +10% EtOH, 2 weeks): 95.8% | Residual absorbance percentage ([2]; 3 μM dye in MOPS (10 mM, pH 7.0) +10% EtOH, 4 weeks): 92.9% | Residual absorbance percentage ([3]; 1 month): 99.1% | Residual absorbance percentage ([3]; 3 months): 94.1% | Residual absorbance percentage ([3]; 6 months): 93.3%
